For 20 molecules, T/C results are on record in PubChem BioAssay AID330 (DTP/NCI, 2004).

“And” between values parts separate entries of the source, which are not always exact repeats. Identical values can stand only once. Inconclusive results and toxic doses are left out. Peptide text beside a SMILES is read from it.

For this experiment, the system named is P388 leukemia ip, CD2F1 mice, survival T/C. The experiment can be described thus: NCI In Vivo Anticancer Drug Screen. Data for tumor model P388 Leukemia (intraperitoneal) in CD2F1 (CDF1) mice. Conditions: endpoint: median survival time, higher = longer survival. In a few lines: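 Mice carrying the transplanted tumor received test compound or vehicle. Survival was recorded in each group, and the value is the treated-group measurement divided by that of the vehicle-treated control group.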

Setting [1] is: dose: 200.0 mg/kg/injection, schedule: Q04DX003 (ip), vehicle: Klucel (hydroxypropylcellulose) (HPC).
Where [2] appears, read: dose: 50.0 mg/kg/injection, schedule: Q01DX009 (ip), vehicle: Klucel (hydroxypropylcellulose) (HPC).
The mark [3] stands for this setting: dose: 100.0 mg/kg/injection, schedule: Q01DX009 (ip), vehicle: Klucel (hydroxypropylcellulose) (HPC).
[4] abbreviates: dose: 200.0 mg/kg/injection, schedule: Q01DX009 (ip), vehicle: Klucel (hydroxypropylcellulose) (HPC).
[5] abbreviates: dose: 20.0 mg/kg/injection, schedule: Q01DX009 (ip), vehicle: saline.
The mark [6] stands for this setting: dose: 50.0 mg/kg/injection, schedule: Q01DX005 (ip), vehicle: Klucel (hydroxypropylcellulose) (HPC).
[7] abbreviates: dose: 100.0 mg/kg/injection, schedule: Q01DX005 (ip), vehicle: Klucel (hydroxypropylcellulose) (HPC).
The mark [8] stands for this setting: dose: 200.0 mg/kg/injection, schedule: Q01DX005 (ip), vehicle: Klucel (hydroxypropylcellulose) (HPC).
The mark [9] stands for this setting: dose: 25.0 mg/kg/injection, schedule: Q01DX005 (ip), vehicle: Klucel (hydroxypropylcellulose) (HPC).

For `CC(=O)O[C@@H]1[C@H](C)[C@@H]2CC(=O)O[C@@H]3[C@H](OC(=O)C=C(C)C)[C@H]4C(C)=CC(=O)[C@@H](OC(C)=O)[C@]4(C)[C@H]4[C@@]1(O)OC[C@@]342`, the T/C was 104 % of control (dose: 1.25 mg/kg/injection, schedule: Q01DX009 (ip), vehicle: Klucel (hydroxypropylcellulose) (HPC)); 107 % of control (dose: 2.5 mg/kg/injection, schedule: Q01DX009 (ip), vehicle: Klucel (hydroxypropylcellulose) (HPC)); 107 % of control (dose: 5.0 mg/kg/injection, schedule: Q01DX009 (ip), vehicle: Klucel (hydroxypropylcellulose) (HPC)); 107 % of control (dose: 10.0 mg/kg/injection, schedule: Q01DX009 (ip), vehicle: Klucel (hydroxypropylcellulose) (HPC)).

For the molecule `Nn1cnnc1N/N=C\c1ccc(N(CCCl)CCCl)cc1`, the T/C (dose: 12.5 mg/kg/injection, schedule: Q01DX009 (ip), vehicle: saline) is 121 % of control and 122 % of control; the T/C (dose: 50.0 mg/kg/injection, schedule: Q01DX009 (ip), vehicle: saline) was 174 % of control and 188 % of control; the T/C (dose: 100.0 mg/kg/injection, schedule: Q01DX009 (ip), vehicle: saline) is 195 % of control and 209 % of control.

As to `O=C1C=C(N(CCCl)CCCl)C(=O)C=C1N(CCCl)CCCl`, the T/C (dose: 50.0 mg/kg/injection, schedule: Q04DX003 (ip), vehicle: Klucel (hydroxypropylcellulose) (HPC)) was 101 % of control and the T/C under setting [1] was 178 % of control.

Take `Cc1ccc(S(=O)(=O)N/N=C/c2cc(I)cc([N+](=O)[O-])c2O)cc1`: the T/C was 95 % of control (dose: 50.0 mg/kg/injection, schedule: Q01DX005 (ip), vehicle: saline with Tween-80); 101 % of control (dose: 100.0 mg/kg/injection, schedule: Q01DX005 (ip), vehicle: saline with Tween-80); 100 % of control (dose: 200.0 mg/kg/injection, schedule: Q01DX005 (ip), vehicle: saline with Tween-80).

`O=c1ccc(=O)n(CCc2ccccn2)[nH]1`: the T/C is 112 % of control under setting [2]; 109 % of control under setting [3]; 108 % of control under setting [4]; 106 % of control (dose: 400.0 mg/kg/injection, schedule: Q01DX009 (ip), vehicle: Klucel (hydroxypropylcellulose) (HPC)).

Consider `O=S1(=O)OCCCO1`, for which the T/C is 109 % of control (dose: 12.5 mg/kg/injection, schedule: Q01DX005 (ip), vehicle: saline); 98 % of control (dose: 25.0 mg/kg/injection, schedule: Q01DX005 (ip), vehicle: saline); 124 % of control (dose: 50.0 mg/kg/injection, schedule: Q01DX005 (ip), vehicle: saline).

On to `O=C1C(C(=Nc2cccc(Br)c2)c2ccccc2)=C(O)c2ccccc21`, for which the T/C (dose: 25.0 mg/kg/injection, schedule: Q04DX002 (ip), vehicle: saline with Tween-80) is 96 % of control; the T/C (dose: 50.0 mg/kg/injection, schedule: Q04DX002 (ip), vehicle: saline with Tween-80) was 100 % of control; the T/C (dose: 100.0 mg/kg/injection, schedule: Q04DX002 (ip), vehicle: saline with Tween-80) was 99 % of control.

With `O=C(NCCNC(=S)Nc1ccccc1)C(=O)NCCNC(=S)Nc1ccccc1`, the T/C (dose: 50.0 mg/kg/injection, schedule: Q01DX001 (ip), vehicle: Klucel (hydroxypropylcellulose) (HPC)) was 91 % of control; the T/C (dose: 100.0 mg/kg/injection, schedule: Q01DX001 (ip), vehicle: Klucel (hydroxypropylcellulose) (HPC)) was 91 % of control; the T/C (dose: 200.0 mg/kg/injection, schedule: Q01DX001 (ip), vehicle: Klucel (hydroxypropylcellulose) (HPC)) was 91 % of control.

For `O=C(NC(=O)c1cccc2ccccc12)NC(=S)c1cccc2ccccc12`, the T/C runs as follows: (dose: 100.0 mg/kg/injection, schedule: Q01DX001 (ip), vehicle: saline) 103 % of control and 96 % of control; (dose: 200.0 mg/kg/injection, schedule: Q01DX001 (ip), vehicle: saline) 109 % of control and 95 % of control; (dose: 400.0 mg/kg/injection, schedule: Q01DX001 (ip), vehicle: saline) 101 % of control and 87 % of control.

As for `C/C(=N\O)C1(C)CC=CCC1CO` (stereo unspecified), the T/C by setting is: (dose: 100.0 mg/kg/injection, schedule: Q01DX009 (ip), vehicle: saline with Tween-80) 95 % of control; (dose: 200.0 mg/kg/injection, schedule: Q01DX009 (ip), vehicle: saline with Tween-80) 100 % of control; (dose: 400.0 mg/kg/injection, schedule: Q01DX009 (ip), vehicle: saline with Tween-80) 100 % of control.

Turning to `CSC(/C=C/c1ccccc1)=Nc1ccccc1`, the T/C reads like this: (dose: 100.0 mg/kg/injection, schedule: Q01DX001 (ip), vehicle: saline with Tween-80) 99 % of control; (dose: 200.0 mg/kg/injection, schedule: Q01DX001 (ip), vehicle: saline with Tween-80) 99 % of control; (dose: 400.0 mg/kg/injection, schedule: Q01DX001 (ip), vehicle: saline with Tween-80) 101 % of control.

For the molecule `NS(=O)(=O)c1ccc(N=Cc2cnc3ccccc3n2)cc1`, the T/C (dose: 5.0 mg/kg/injection, schedule: Q01DX009 (ip), vehicle: saline) is 97 % of control; the T/C (dose: 10.0 mg/kg/injection, schedule: Q01DX009 (ip), vehicle: saline) is 101 % of control; the T/C under setting [5] was 97 % of control.

As to `NC(=O)C(Cc1ccc(O)cc1)NC(=O)OCc1ccccc1` (stereo unspecified), the T/C by setting is: under setting [6], 97 % of control; under setting [7], 92 % of control; under setting [8], 97 % of control.

Turning to `COc1nc(=O)n(C2C=CC(=O)O2)cc1F` (stereo unspecified), the T/C is 158 % of control and 173 % of control under setting [5]; 174 % of control and 196 % of control (dose: 40.0 mg/kg/injection, schedule: Q01DX009 (ip), vehicle: saline); 102 % of control (dose: 80.0 mg/kg/injection, schedule: Q01DX009 (ip), vehicle: saline).

On to `O=C1C2=C(Nc3ccccc3N2)OC1c1ccco1` (stereo unspecified), for which the T/C reads like this: (dose: 12.5 mg/kg/injection, schedule: Q01DX005 (ip), vehicle: Klucel (hydroxypropylcellulose) (HPC)) 103 % of control; under setting [9], 100 % of control; under setting [6], 102 % of control and 89 % of control.

For the molecule `O=C1C2C3(CCl)C1C23CCl` (stereo unspecified), the T/C reads like this: (dose: 7.5 mg/kg/injection, schedule: Q01DX005 (ip), vehicle: Klucel (hydroxypropylcellulose) (HPC)) 108 % of control; (dose: 15.0 mg/kg/injection, schedule: Q01DX005 (ip), vehicle: Klucel (hydroxypropylcellulose) (HPC)) 104 % of control; (dose: 30.0 mg/kg/injection, schedule: Q01DX005 (ip), vehicle: Klucel (hydroxypropylcellulose) (HPC)) 108 % of control.

Take `COc1ccc(/C=C2\CCOc3ccc(C)cc3C2=O)cc1`: the T/C reads like this: (dose: 100.0 mg/kg/injection, schedule: Q04DX003 (ip), vehicle: Klucel (hydroxypropylcellulose) (HPC)) 94 % of control; under setting [1], 96 % of control; (dose: 400.0 mg/kg/injection, schedule: Q04DX003 (ip), vehicle: Klucel (hydroxypropylcellulose) (HPC)) 102 % of control.

On to `CCOC(=O)CC(=O)Cc1oc2c(C(C)=O)c(O)c(C)c(O)c2c1C`, for which the T/C under setting [6] is 86 % of control, the T/C under setting [7] is 87 % of control and the T/C under setting [8] is 90 % of control.

On to `c1ccc2c(c1)Cc1cc3ccccc3nc1-2`, for which the T/C was 94 % of control under setting [9]; 94 % of control (dose: 25.0 mg/kg/injection, schedule: Q01DX009 (ip), vehicle: Klucel (hydroxypropylcellulose) (HPC)); 100 % of control under setting [6]; 91 % of control under setting [2]; 100 % of control under setting [7]; 106 % of control under setting [3]. The T/C was 97 % of control under setting [8] and 100 % of control under setting [4].

Regarding `CCC(C)C(N)C(=O)NC(C(=O)O)C(C)C` (stereo not drawn) (H-Ile-Val-OH; configuration not given here), the T/C (dose: 60.0 mg/kg/injection, schedule: Q01DX005 (ip), vehicle: saline) is 95 % of control; the T/C (dose: 120.0 mg/kg/injection, schedule: Q01DX005 (ip), vehicle: saline) was 103 % of control; the T/C (dose: 240.0 mg/kg/injection, schedule: Q01DX005 (ip), vehicle: saline) was 95 % of control.
